Our source for the IC50, EC50 and AC50 values is ChEMBL document CHEMBL1201862, “PubChem BioAssay data set” (2004).

The source made the active and inactive calls.

The nature of experiment [1]: Counterscreen for IDE inhibitors: Luminescence-based cell-based high throughput dose response assay to identify compounds that are cytotoxic to HEK cells. [Related pubchem assays: 434962 (Primary screen (IDE inhibitors in singlicate)), 449730 (Counterscreen (Cytotoxicity in triplicate)), 435028 (Confirmation (IDE inhibitors in triplicate)) …. The experiment is classed as functional. The conditions noted are these: HEK293.

The target in experiment [2] is T1, Insulin-degrading enzyme (Homo sapiens, UniProt P14735).
T1 sequence (P14735 whole entry): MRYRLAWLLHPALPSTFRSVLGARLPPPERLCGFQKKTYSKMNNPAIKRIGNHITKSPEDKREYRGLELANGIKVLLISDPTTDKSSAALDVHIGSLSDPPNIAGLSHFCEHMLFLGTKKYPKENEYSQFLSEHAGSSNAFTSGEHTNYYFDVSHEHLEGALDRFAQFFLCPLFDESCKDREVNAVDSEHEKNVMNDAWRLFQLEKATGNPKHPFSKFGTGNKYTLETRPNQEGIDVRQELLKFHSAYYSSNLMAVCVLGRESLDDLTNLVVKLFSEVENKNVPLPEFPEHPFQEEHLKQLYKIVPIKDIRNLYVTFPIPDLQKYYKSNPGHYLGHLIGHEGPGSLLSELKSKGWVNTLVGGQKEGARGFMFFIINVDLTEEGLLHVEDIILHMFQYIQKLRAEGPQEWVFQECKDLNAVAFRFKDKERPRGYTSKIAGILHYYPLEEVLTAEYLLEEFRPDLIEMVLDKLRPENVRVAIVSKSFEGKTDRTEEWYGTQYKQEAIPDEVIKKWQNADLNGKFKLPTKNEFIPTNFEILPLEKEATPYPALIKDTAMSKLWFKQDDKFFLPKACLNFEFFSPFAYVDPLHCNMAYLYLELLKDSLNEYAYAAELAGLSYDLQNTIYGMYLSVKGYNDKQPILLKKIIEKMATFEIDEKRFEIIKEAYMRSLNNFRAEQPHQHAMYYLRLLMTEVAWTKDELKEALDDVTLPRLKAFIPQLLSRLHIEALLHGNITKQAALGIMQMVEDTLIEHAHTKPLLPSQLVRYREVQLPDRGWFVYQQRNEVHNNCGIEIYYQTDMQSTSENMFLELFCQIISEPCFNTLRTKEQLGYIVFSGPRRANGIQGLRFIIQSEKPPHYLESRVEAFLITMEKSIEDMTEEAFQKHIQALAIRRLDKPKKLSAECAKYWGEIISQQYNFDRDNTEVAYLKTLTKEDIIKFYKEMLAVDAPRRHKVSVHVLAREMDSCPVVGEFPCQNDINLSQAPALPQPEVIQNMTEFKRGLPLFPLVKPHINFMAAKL
The experiment is described as follows: Dose Response: Fluorescence polarization-based cell-based high throughput dose response assay for inhibitors of insulin-degrading enzyme (IDE). [Related pubchem assays: 434962 (Primary screen (IDE inhibitors in singlicate)), 449730 (Counterscreen (Cytotoxicity in triplicate)), 435028 (Confirmation (IDE inhibitors in triplicate)), 434984 (Summary …. The experiment is classed as functional.

Experiment [3] is described as follows: mitochondrial function rescue without frataxin homolog – Friedreich's ataxia, plus single-dose screen, dose response (AID 1465).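 Further: yeast depleted of Yfh1p frataxin homolog grown on glycerol needing respiration; WST-1 tetrazolium dye reduction as measure of cellular dehydrogenase metabolic activity.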 The experiment is classed as functional.
In experiment [4] the target is Troponin, cardiac muscle (Homo sapiens, UniProt P19429+P45379+P63316). Nature of the experiment: Fluorescence-based biochemical high throughput dose response assay for activators of the calcium sensitivity of cardiac Regulated Thin Filaments (RTF). [Related pubchem assays (depositor defined):AID493008, AID493018, AID504382, AID504383]. The experiment is classed as protein-complex assay.

The target in experiment [5] is Lysine-specific demethylase 4C (Homo sapiens, UniProt Q9H3R0). Nature of the experiment: inhibition of JMJD2C H3K9me3 demethylation – biochemical, DELFIA europium, cherry-picked samples, dose response (AID 488835). The experiment is classed as functional.
Experiment [6] in a line: NIH-3T3 fibroblast cytotoxicity, dose response, cytotoxicity control, cell-based, fluorescence, Alamar Blue, secondary assay (AID 2327).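 Further: NIH-3T3 mouse fibroblasts cultured with fluconazole at 8 µg/mL.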 The experiment is classed as functional. (Alamar Blue is a resazurin reagent that responds to reducing activity.)
A short description of experiment [7]: cells. The experiment is classed as functional, cell-based.
The nature of experiment [8]: fluconazole-exposed Candida albicans growth modulators – fluorescence, retest, confirmation (AID 2467). The experiment is classed as functional, cell-based.
Experiment [9] in a line: cells. The experiment is classed as functional, cell-based. This is another data set of the same source.
The target of experiment [10] is Exodeoxyribonuclease V (Escherichia coli (strain K12), UniProt P04993+P07648+P08394). The experiment is described as follows: RecBCD inhibition via phage-restricted bacterial growth – absorbance, V66 E. coli, mutant T4 phage, counter-screen for AddAB inhibitor project, dose response (AID 492957). The experiment is classed as functional, cell-based, Escherichia coli str. K-12 substr. MG1655.

Experiment [11] can be described thus: Counterscreen for AddAB inhibitors: absorbance-based bacterial cell-based high throughput dose response assay for inhibitors of bacterial viability. [Related pubchem assays (depositor defined):AID435030, AID449728, AID449731, AID488942, AID488955, AID488956]. The experiment is classed as functional. A general note: The purpose of a counterscreen is to sort out artefacts and off-target activity.

The test system of experiment [12] is INS1. Nature of the experiment: INS-1E survival protection against cytokine death – cell-based, luminescence, retest, dose response (AID 449756).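 Further: cell death triggered by IL-1 beta plus TNF-alpha plus IFN-gamma mixture; protective hits raise ATP signal compared with cytokine alone wells.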 The experiment is classed as functional. The conditions noted are these: Rattus norvegicus.
Experiment [13] has as its target Galanin receptor type 3 (Homo sapiens, UniProt O60755). The experiment is described as follows: Fluorescence-based cell-based primary high throughput dose response assay to identify antagonists of the Galanin Receptor 3 (GalR3). The experiment is classed as functional.
The nature of experiment [14]: cells. The conditions noted are these: HEK-CNG. The experiment is classed as functional, cell-based.
Experiment [15] in a line: A cytotoxicity screen of small molecule inhibitors of the PhoP region in Salmonella typhi identified in the primary screen. [Related pubchem assays: 1850, 1864, 1985 ]. The experiment is classed as functional.
The target of experiment [16] is T2, Replicative DNA helicase DnaB (Mycobacterium tuberculosis, UniProt P9WMR3).
T2 sequence (P9WMR3 whole entry): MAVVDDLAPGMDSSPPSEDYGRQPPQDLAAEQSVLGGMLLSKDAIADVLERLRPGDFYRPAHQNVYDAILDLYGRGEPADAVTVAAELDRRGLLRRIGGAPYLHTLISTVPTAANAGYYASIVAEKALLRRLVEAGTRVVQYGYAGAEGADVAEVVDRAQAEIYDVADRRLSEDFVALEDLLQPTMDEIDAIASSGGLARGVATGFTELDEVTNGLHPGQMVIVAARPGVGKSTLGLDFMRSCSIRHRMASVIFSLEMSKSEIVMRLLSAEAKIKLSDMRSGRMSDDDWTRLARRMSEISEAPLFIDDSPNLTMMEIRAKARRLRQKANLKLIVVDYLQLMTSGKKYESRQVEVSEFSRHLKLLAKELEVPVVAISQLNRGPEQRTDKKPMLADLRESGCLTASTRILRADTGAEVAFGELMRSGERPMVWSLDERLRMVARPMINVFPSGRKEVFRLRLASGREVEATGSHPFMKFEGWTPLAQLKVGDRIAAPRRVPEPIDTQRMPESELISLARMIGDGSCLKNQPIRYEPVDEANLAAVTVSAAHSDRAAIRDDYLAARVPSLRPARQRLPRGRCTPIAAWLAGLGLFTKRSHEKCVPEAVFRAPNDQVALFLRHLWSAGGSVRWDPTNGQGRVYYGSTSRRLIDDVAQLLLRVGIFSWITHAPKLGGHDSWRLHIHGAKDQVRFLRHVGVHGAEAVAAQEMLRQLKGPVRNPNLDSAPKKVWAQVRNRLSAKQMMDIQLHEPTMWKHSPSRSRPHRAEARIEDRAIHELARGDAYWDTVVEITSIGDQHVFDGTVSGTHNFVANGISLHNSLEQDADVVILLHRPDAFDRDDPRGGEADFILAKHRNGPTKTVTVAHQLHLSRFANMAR
Nature of the experiment: DnaB intein splicing inhibitors, dose response, biochemical, cell-free fluorescence (AID 449749). The experiment is classed as functional.

The target in experiment [17] is T3, Apoptotic protease-activating factor 1 (Homo sapiens, UniProt O14727).
T3 sequence (O14727 whole entry): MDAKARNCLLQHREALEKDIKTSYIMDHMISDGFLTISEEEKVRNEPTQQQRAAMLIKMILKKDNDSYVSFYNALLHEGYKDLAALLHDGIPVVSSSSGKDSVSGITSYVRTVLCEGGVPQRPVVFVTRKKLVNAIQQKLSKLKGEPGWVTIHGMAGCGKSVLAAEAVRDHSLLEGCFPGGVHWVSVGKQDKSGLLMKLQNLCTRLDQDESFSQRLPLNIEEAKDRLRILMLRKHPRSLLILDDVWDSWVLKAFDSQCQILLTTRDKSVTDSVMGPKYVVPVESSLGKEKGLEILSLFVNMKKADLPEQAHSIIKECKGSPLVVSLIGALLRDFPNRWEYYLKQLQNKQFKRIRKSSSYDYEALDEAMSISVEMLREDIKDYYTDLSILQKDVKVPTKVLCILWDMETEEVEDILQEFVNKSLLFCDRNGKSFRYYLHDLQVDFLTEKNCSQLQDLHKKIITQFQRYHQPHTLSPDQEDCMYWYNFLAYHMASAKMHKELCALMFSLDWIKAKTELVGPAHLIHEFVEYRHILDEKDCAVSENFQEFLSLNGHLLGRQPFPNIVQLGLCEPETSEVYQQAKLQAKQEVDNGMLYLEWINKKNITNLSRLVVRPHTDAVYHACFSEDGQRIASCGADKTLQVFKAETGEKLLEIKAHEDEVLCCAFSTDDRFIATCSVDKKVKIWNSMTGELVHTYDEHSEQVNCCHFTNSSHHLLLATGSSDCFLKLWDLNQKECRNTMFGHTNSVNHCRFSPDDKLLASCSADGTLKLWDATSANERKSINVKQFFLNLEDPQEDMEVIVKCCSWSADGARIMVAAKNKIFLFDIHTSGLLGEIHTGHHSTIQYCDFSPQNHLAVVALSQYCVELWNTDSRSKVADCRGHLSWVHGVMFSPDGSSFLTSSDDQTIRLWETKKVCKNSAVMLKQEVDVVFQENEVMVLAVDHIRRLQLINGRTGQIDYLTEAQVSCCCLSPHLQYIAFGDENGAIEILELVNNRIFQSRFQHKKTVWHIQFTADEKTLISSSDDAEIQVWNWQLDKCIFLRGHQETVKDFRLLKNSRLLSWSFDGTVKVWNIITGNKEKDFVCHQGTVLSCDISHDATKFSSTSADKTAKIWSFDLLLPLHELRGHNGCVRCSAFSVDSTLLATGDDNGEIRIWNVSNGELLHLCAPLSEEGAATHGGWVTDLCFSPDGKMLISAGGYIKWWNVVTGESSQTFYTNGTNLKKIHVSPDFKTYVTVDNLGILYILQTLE
The experiment is classed as functional.

In experiment [18] the target is T4, Protein RecA (Mycobacterium tuberculosis, UniProt P9WHJ3).
T4 sequence (P9WHJ3 whole entry): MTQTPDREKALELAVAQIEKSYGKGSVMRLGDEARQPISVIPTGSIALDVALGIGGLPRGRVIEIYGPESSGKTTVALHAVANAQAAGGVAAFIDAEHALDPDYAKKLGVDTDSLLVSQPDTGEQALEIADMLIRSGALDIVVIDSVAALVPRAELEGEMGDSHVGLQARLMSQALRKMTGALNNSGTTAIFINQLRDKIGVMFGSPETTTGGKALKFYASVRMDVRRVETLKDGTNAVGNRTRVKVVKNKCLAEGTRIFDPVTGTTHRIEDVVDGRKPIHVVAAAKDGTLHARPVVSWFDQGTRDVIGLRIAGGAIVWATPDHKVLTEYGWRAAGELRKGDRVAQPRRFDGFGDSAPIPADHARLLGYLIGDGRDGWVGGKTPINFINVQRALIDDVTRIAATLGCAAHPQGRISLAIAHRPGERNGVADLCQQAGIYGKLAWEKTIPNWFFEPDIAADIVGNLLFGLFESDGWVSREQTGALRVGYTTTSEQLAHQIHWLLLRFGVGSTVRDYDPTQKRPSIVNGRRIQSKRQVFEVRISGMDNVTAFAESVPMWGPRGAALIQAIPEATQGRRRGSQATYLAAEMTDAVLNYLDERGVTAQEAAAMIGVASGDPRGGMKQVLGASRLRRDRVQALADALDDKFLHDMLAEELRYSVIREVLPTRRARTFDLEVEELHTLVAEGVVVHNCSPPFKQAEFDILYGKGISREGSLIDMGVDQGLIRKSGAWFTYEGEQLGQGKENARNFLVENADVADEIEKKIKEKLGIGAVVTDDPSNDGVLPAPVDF
The experiment is described as follows: Fluorescence Cell-Free Homogeneous Dose Retest to Identify Inhibitors of RecA-Intein Splicing Activity. [Related pubchem assays (depositor defined):AID2097, AID2223, AID489010, AID492950]. The experiment is classed as functional.

Broadly, the IC50 is the concentration at which inhibition is half-maximal. One may read the EC50 as the concentration giving half of the maximal effect. In general, AC50 refers to the midpoint of the concentration-response curve, whichever way the signal moves.

As for `N#C/C(=C\c1ccc(N2CCOCC2)o1)C(=O)NC1CCCCC1`, the figures for the IC50 in [1] and in experiment [2] were 31.8 µM (not active) and 8.05 µM (active), respectively. Also, the figures for the EC50 in [3] and in experiment [4] were > 100 µM (active) and 6.89 µM (active), respectively.
Regarding `Cc1ccc2c(c1)N(CC(=O)NCC1CCCO1)C(=O)C(C(C)C)O2` (stereo unspecified), in experiment [5], the AC50 was 11.5 µM (active).
Turning to `Nc1nonc1-n1nnc(C(=O)N/N=C/c2cc(Br)ccc2O)c1CSC1=NCCS1`, the EC50 in experiment [6] is 5.49 µM (active); in [7] it was 12.6 µM (active); in experiment [8] it was 0.299 µM (active); in experiment [9], > 350 µM (not active); in experiment [14], > 29.9 µM (inactive). For the same compound, the IC50 in experiment [10] was > 119 µM (inactive); in experiment [11], > 119 µM (inactive); in experiment [13] it was 1.24 µM (active). Moreover, the AC50 in experiment [12] was 0.567 µM (active).
Regarding `CCCCNC1=CC(=O)C(=O)c2ccccc21`, the EC50 in experiment [15] is > 50 µM (active); in [18], 0.669 µM (active). Also, the values for the IC50 in [10], in [11] and in experiment [17] were > 119 µM (inactive), > 39.5 µM (inactive) and 6.49 µM (active), respectively. Moreover, the AC50 is 0.575 µM (active) in [16] and 1.78 µM (active) in [12].
